Among the test systems are DU-145 prostate; MDA-MB-231 breast; MOLT-4 leukemia; NCI-H226 lung; NCI/ADR-RES ovarian; SF-295 CNS; SF-539 CNS; SN12C renal; SR leukemia; UO-31 renal.
Common to all, as to test: NCI anticancer screen, dose series, 48 h

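48-hour exposure; five concentrations; linearly interpolated endpoints. GI50: concentration for 50% inhibition of growth. TGI: concentration producing complete growth inhibition.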 Some results are limits rather than exact numbers.

For the molecule `N#Cc1c(Oc2ccc(F)c(NC(=O)Cc3cccc(C(F)(F)F)c3)c2)ccc2nc(NC(=O)C3CC3)sc12`, the GI50 in the experiment on DU-145 prostate is 2.34 µM; with MDA-MB-231 breast it was 0.422 µM; in the experiment with MOLT-4 leukemia it was 0.673 µM; in the experiment with NCI-H226 lung, 0.838 µM; in the experiment on NCI/ADR-RES ovarian it was 1.28 µM; in the experiment on SF-295 CNS, 0.579 µM. Besides, the GI50 in the experiment on SF-539 CNS is 0.436 µM; with SN12C renal it was 1.26 µM; in the experiment with SR leukemia, 0.672 µM; in the experiment with UO-31 renal, 0.553 µM. The TGI in the experiment on DU-145 prostate is above 100 µM; with MDA-MB-231 breast, 6.26 µM; in the experiment on MOLT-4 leukemia it was above 100 µM; with NCI-H226 lung it was above 100 µM; with NCI/ADR-RES ovarian, above 100 µM; with SF-295 CNS, above 100 µM. The TGI with SF-539 CNS is above 27.2 µM; in the experiment with SN12C renal, above 100 µM; with SR leukemia, above 100 µM; with UO-31 renal it was above 24.2 µM.
On to `Cc1cc2c(C(C)C)c(O)c(O)c(C=O)c2c(O)c1-c1c(C)cc2c(C(C)C)c(O)c(O)c(C=O)c2c1O` (tested in a mixture with another compound), for which the GI50 is 1.12 µM with DU-145 prostate; 2.11 µM in the experiment on MDA-MB-231 breast; 0.748 µM with MOLT-4 leukemia; 1.39 µM in the experiment with NCI-H226 lung; 0.825 µM in the experiment on NCI/ADR-RES ovarian; 0.325 µM in the experiment with SF-295 CNS. Besides, the GI50 was 1.33 µM in the experiment with SF-539 CNS, 1.66 µM in the experiment on SN12C renal, 1.46 µM in the experiment with SR leukemia and 1.64 µM in the experiment with UO-31 renal. For the same molecule, the TGI with DU-145 prostate was found to be 3.07 µM; with MDA-MB-231 breast, 5.8 µM; with MOLT-4 leukemia it was 13.6 µM; with NCI-H226 lung it was 4.95 µM; with NCI/ADR-RES ovarian, 2.56 µM; in the experiment on SF-295 CNS it was 1.71 µM. For the same molecule, the TGI in the experiment with SF-539 CNS is 4.42 µM; in the experiment on SN12C renal, 5.95 µM; in the experiment with SR leukemia, 17.8 µM; in the experiment with UO-31 renal it was 4.56 µM.
Turning to `COc1cnc2c(c1)C(=O)c1c-2n(CCCN2CCN(CCO)CC2)c(=O)c2cc([N+](=O)[O-])ccc12`, the GI50 in the experiment on DU-145 prostate was 1.43 µM; in the experiment on MDA-MB-231 breast it was 1.81 µM; in the experiment on MOLT-4 leukemia, 0.552 µM; in the experiment on NCI-H226 lung, 0.964 µM; in the experiment with NCI/ADR-RES ovarian it was 1.29 µM; in the experiment on SF-295 CNS it was 0.533 µM. In addition, the GI50 in the experiment on SF-539 CNS was 1.7 µM; in the experiment with UO-31 renal, 3.32 µM. Moreover, the TGI in the experiment with DU-145 prostate came out at 4.42 µM; in the experiment with MDA-MB-231 breast, 3.74 µM; in the experiment with MOLT-4 leukemia it was 4.45 µM; in the experiment on NCI-H226 lung, 20 µM; in the experiment with NCI/ADR-RES ovarian, 3.86 µM; in the experiment on SF-295 CNS it was 2.05 µM. The TGI with SF-539 CNS stood at 3.68 µM; with UO-31 renal it was 20.8 µM.
Turning to `C[C@@H]1CN2[C@H]3[C@@H]1CC[C@]31CCC(=O)O[C@]1(C)[C@@H]1CC[C@H]3CCC=C3[C@@H]12`, the GI50 in the experiment with DU-145 prostate, in the experiment with MDA-MB-231 breast, in the experiment with MOLT-4 leukemia, with NCI-H226 lung, with NCI/ADR-RES ovarian and in the experiment with SF-295 CNS was above 70 µM each time. Also, the GI50 with SF-539 CNS was above 70 µM; with SN12C renal it was above 70 µM; with SR leukemia, above 70 µM; with UO-31 renal, 43.5 µM. Besides, the TGI in the experiment with DU-145 prostate, with MDA-MB-231 breast, in the experiment on MOLT-4 leukemia, in the experiment with NCI-H226 lung, with NCI/ADR-RES ovarian and with SF-295 CNS was above 70 µM each time. In addition, the TGI in the experiment with SF-539 CNS, in the experiment with SN12C renal, with SR leukemia and in the experiment on UO-31 renal was above 70 µM throughout.
On to `O=C(CC1(O)C(=O)Nc2c(Cl)ccc(Cl)c21)c1ccc(C2CC2)cc1` (stereo not given), for which the GI50 in the experiment on DU-145 prostate was 1.63 µM; with MDA-MB-231 breast it was 2.64 µM; with MOLT-4 leukemia, 1.19 µM; in the experiment on NCI-H226 lung, 3.05 µM; with NCI/ADR-RES ovarian, 0.406 µM; in the experiment with SF-295 CNS, 0.44 µM. Moreover, the GI50 in the experiment with SF-539 CNS was 0.751 µM; in the experiment with SN12C renal it was 2.66 µM; in the experiment on SR leukemia it was 0.106 µM; with UO-31 renal, 1.58 µM. Also, the TGI in the experiment with DU-145 prostate worked out at 17.8 µM; with MDA-MB-231 breast it was 21.8 µM; with MOLT-4 leukemia it was 18.1 µM; in the experiment with NCI-H226 lung, 25.5 µM; with NCI/ADR-RES ovarian, 14.7 µM; in the experiment with SF-295 CNS, 4.32 µM. For the same molecule, the TGI with SF-539 CNS was found to be 5.79 µM; with SN12C renal, 20.4 µM; with SR leukemia, 15.3 µM; with UO-31 renal, 19.6 µM.
As to `C[C@@H](Oc1cc(-c2cnn(C3CC4(CCCNC4)C3)c2)cnc1N)c1c(Cl)ccc(F)c1Cl` (stereo not given in full), the GI50 in the experiment with DU-145 prostate is 1.88 µM; in the experiment on MDA-MB-231 breast it was 1.29 µM; in the experiment with MOLT-4 leukemia, 1.22 µM; with NCI-H226 lung, 2.29 µM; in the experiment with NCI/ADR-RES ovarian it was 2.25 µM; in the experiment with SF-295 CNS, 0.247 µM. For the same molecule, the GI50 in the experiment on SF-539 CNS is 1.59 µM; in the experiment with SN12C renal, 1.5 µM; in the experiment with SR leukemia, 0.0827 µM; with UO-31 renal, 1.76 µM. Further, the TGI was 6.92 µM in the experiment with DU-145 prostate; 3.11 µM in the experiment with MDA-MB-231 breast; 5.46 µM in the experiment with MOLT-4 leukemia; 9.76 µM with NCI-H226 lung; 5.59 µM in the experiment with NCI/ADR-RES ovarian; 2.13 µM in the experiment with SF-295 CNS. The TGI in the experiment with SF-539 CNS was 3.02 µM; in the experiment on SN12C renal it was 8.97 µM; in the experiment on SR leukemia it was 1.41 µM; in the experiment with UO-31 renal it was 3.9 µM.
As to `O=C1c2cccc3cc([N+](=O)[O-])cc(c23)C(=O)N1O`, the TGI with DU-145 prostate, in the experiment on MDA-MB-231 breast, in the experiment on MOLT-4 leukemia, in the experiment on NCI-H226 lung, with NCI/ADR-RES ovarian and in the experiment with SF-295 CNS was above 100 µM each time. For the same molecule, the TGI with SN12C renal, with SR leukemia and with UO-31 renal was above 100 µM each time.
In the case of `Cc1cccnc1CNC1CC(NCc2ncccc2C)CC(NCc2ncccc2C)C1` (stereo not given), the GI50 is 1.88 µM in the experiment with DU-145 prostate; 1.6 µM with MDA-MB-231 breast; 2.72 µM in the experiment with MOLT-4 leukemia; 1.65 µM in the experiment on NCI-H226 lung; 19.3 µM in the experiment with NCI/ADR-RES ovarian; 3.12 µM with SF-295 CNS. Also, the GI50 in the experiment with SF-539 CNS is 2.92 µM; in the experiment with SN12C renal it was 1.61 µM; in the experiment with SR leukemia, 0.406 µM; in the experiment on UO-31 renal it was 4.85 µM. Further, the TGI is 3.58 µM with DU-145 prostate; 3.56 µM in the experiment on MDA-MB-231 breast; 5.38 µM in the experiment on MOLT-4 leukemia; 3.17 µM in the experiment with NCI-H226 lung; above 100 µM in the experiment with NCI/ADR-RES ovarian; 8.6 µM with SF-295 CNS. Further, the TGI in the experiment with SF-539 CNS turned out to be 9.38 µM; in the experiment on SN12C renal, 3.11 µM; in the experiment on SR leukemia, 2.09 µM; with UO-31 renal it was 22.5 µM.

The record behind these values is PubChem BioAssay (NCI).
